Source: ChEMBL document CHEMBL1201862, “PubChem BioAssay data set” (2004)
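Results reflect a 48-hour exposure of cells in 96-well plates to compound at five concentrations. GI50 is the concentration that inhibits growth by half.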 Activity calls are given as the source filed them. Rule as the data show it: active = GI50 up to about 1.1 µM and inactive = higher.

Tests used:
Test in all cases: growth of human tumour cells (NCI), 48 h
786-0 = tested on: 786-0
A549 = tested on: A549
HCC 2998 = tested on: HCC 2998
K562 = tested on: K562
MCF7 = tested on: MCF7
MDA-MB-231 = tested on: MDA-MB-231
MDA-N = tested on: MDA-N
Malme-3M = tested on: Malme-3M
NCI-H522 = tested on: NCI-H522
OVCAR-3 = tested on: OVCAR-3
OVCAR-4 = tested on: OVCAR-4
RPMI-8226 = tested on: RPMI-8226
RXF 393 = tested on: RXF 393
SF-539 = tested on: SF-539
SK-MEL-2 = tested on: SK-MEL-2
SK-OV-3 = tested on: SK-OV-3
SNB-19 = tested on: SNB-19
SNB-75 = tested on: SNB-75
T47D = tested on: T47D
TK-10 = tested on: TK-10

Measured: GI50

O=C1Nc2ccccc2/C1=C\c1c(-c2ccccc2)nc2n1CCS2
inactive: 786-0 19.6 µM | A549 28.4 µM | HCC 2998 16.4 µM | K562 19.5 µM | MCF7 12.5 µM | MDA-MB-231 21.4 µM | MDA-N 13.1 µM | Malme-3M 26.9 µM | NCI-H522 18.7 µM | OVCAR-3 15.6 µM | OVCAR-4 29 µM | RPMI-8226 22.6 µM | RXF 393 16.7 µM | SF-539 18.7 µM | SK-MEL-2 13.3 µM | SK-OV-3 21.4 µM | SNB-19 28.5 µM | SNB-75 12.1 µM | T47D 18.7 µM | TK-10 13.9 µM
